Values of other authors, collected in US20250340675A1 (priority 2022, published 2025).

How the values were obtained:
mice [1] = conditions: neurotoxic adverse effects; oral administration in mice
mice [2] = conditions: oral administration in mice
albino mice = conditions: mouse, in vivo
[3] = in vivo

For OCCCCO [1,4-Butanediol], the “no observed adverse effect level (NOAEL)” value (mice [1]) is listed as 100 mg/kg per day and the “median lethal dose (LD50)” value (mice [2]) is listed as 1,525 mg/kg.
In the case of O=C(O)c1cc(O)c(O)c(O)c1 [gallic acid, 3,4,5-trihydroxy benzoic acid], the “LD50 (acute toxicity)” value (albino mice) is given as “greater than 2000 mg/kg”.
For Hyaluronic acid [HA], the half-life ([3]; human) is listed as 24÷48 hours and the average turnover rate [3] is listed as 5 g/day.
